Laboratory results taken from patent publication US9421249B2, “Methods to activate or block the HLA-E/Qa-1 restricted CD8+ T cell regulatory pathway to treat immunological disease” (THE TRUSTEES OF COLUMBIA UNIVERSITY IN THE CITY OF NEW YORK, priority 2007, dated 2016).
Where no end group is shown, it is not given here.

Tests used:
T1D in NOD mice = test: Peptide vaccination in spontaneous T1D model; conditions: NOD mice immunized subcutaneously with antigen emulsified with IFA; compared with IFA alone
Experimental: In the standard protocol used throughout this study female 8-10 weeks old B10PL or 3-4 weeks old NOD mice were immunized subcutaneously with 1-9Nac MBP or p277 emulsified with IFA at 100 uM/mouse as described. EAE was induced at least one week after peptide vaccination. CD8+ T cells were purified from spleens and draining lymph nodes of peptide vaccination protected EAE/B10PL mice or T1D/NOD mice by positive selection with CD8 MACS magnetic beads (Miltenyibiotec, Inc. Auburn Calif.). The purity of CD8+ T cells is routinely >95%.
The effect of peptide vaccination or adoptive transfer of CD8+ T cells was evaluated by assessing the clinical EAE (181) or T1D in the recipient mice.

EAE in B10PL mice = test: Peptide vaccination in EAE model; assay type: in vivo; conditions: B10PL mice immunized subcutaneously with antigen emulsified with IFA; compared with IFA alone
Text: B10PL mice were vaccinated with either 1-9NacMBP, a MHC Class II biding peptide derived from MBP or p277, a MHC Class II biding peptide derived from Hsp60. In this regard, it is well known that 1-9NacMBP is a pathogenic peptide in B10PL mice and p277 may be involved in the pathogenesis of T1D in certain mouse strains (174) but irrelevant to EAE.

CD94/NKG2A [1] = test: NK assay with peptide-loaded 3F4 cells; assay type: cell-based; conditions: 3F4 cells loaded with peptide at 26° C. overnight; mouse NK cells 2 hrs
Text: Since a significant number of murine CD8+ T cells express CD94/NKG2A, it was investigated whether Qa-1/Hsp60sp generated in activated murine T cells is capable of interacting with CD94/NKG2A in a functional NK assay. […] This is also compatible with the notion that two types of Qa-1/HLA-E binding peptides could be distinguished by their ability of interact with CD94/NKG2A in both humans (14) and mice.
NK cell lines are routinely established from B10PL mice (24). Unlabeled 3F4 cells were loaded with test peptides at 26° C. overnight and mixed with an equal number of CFSE labeled human EBV transformed LCL cells which are not susceptible to the killing by mouse NK cells. Graded numbers of mouse NK cells were added to the mixture of 3F4 and LCL cells and further incubated at 37° C. for 2 hrs. 3F4 cells, which were not loaded with peptides or loaded with non-Qa-1 binding peptides served as controls. The cell mixtures were then stained with anti mouse H-2^U mAb 3-8-3P-PE to distinguish NK cells from target cells. The change in the ratio of 3F4 to LCL cells in the presence or absence of NK cells in each group detected by FACS (1) reflects the specific NK killing: % specific killing={[the killing ratio in control wells (without NK)−the killing ratio in experimental wells (with NK)]/the killing ratio of control wells}×100%.

Qa-1/HLA-E = conditions: cited from earlier work
Qa-1 [2] = test: Qa-1 binding assay (stabilization of Qa-1a surface expression on 3F4 transfectants, FACS); set-up: species or system murine; conditions: 3F4 cells, peptide 50 μM, 26° C., approximately 18 hours
Experimental: The capacity of the peptides to bind to Qa-1 was first assessed by their ability to stabilize Qa-1 surface expression on 3F4 cells. The 3F4 cells were incubated at 26° C. for approximately 18 hours with Hsp60sp or Qdm peptides and a Qa-1 non-binding peptide HEL 74-96 served as control peptide (12, 14 and 17). As shown by FIG. 6, the binding of exogenous peptide at 26° C. causes a shift in the intensity of Qa-1a surface staining analyzed by FACS.
Selected Qa-1a-PcDNA3.1 positive transfectants detected by RT-PCR were assayed for their Qa-1 surface expression after loading with known Qa-1 binding peptides. In brief, Qa-1a transfectants were incubated at 26° C. for approximately 18 hours with Hsp60sp or Qdm peptides (10, 12 and 17). The surface expression of Qa-1a was assessed by staining with anti-Qa-1a sera followed by Phycoerythorine (PE)-goat anti-mouse Ig, analyzed on a FACScan flow cytometer and CellQuest™ software (Becton Dickinson, Mountain View, Calif.)(1). All peptides were used at 50 μM unless specifically indicated.

Qa-1 [3] = test: Peptide competition assay (functional NK assay); assay type: cell-based, murine; conditions: Qdm 20 μM; competing peptide 50, 100, 200 μM; 18 hrs at 26° C.; E/T ratio 2:1
Experimental: The ability of the Hsp60sp to compete with Qdm for binding to Qa-1 was further tested in a functional NK assay.
Competing peptides (Hsp60sp or control non-Qa-1 binding peptide) at 50, 100, 200 μM were added to the 3F4 cells, together with 20 μM Qdm for 18 hrs at 26° C. (14). Equal numbers of CFSE labeled LCL cells were mixed with 3F4 cells and NK cells were then added into the mixture of peptide loaded 3F4 cells and LCL cells. The percent NK killing of 3F4 cells was evaluated.

[4] = system: HLA-E restricted CD8+ T cells; test: CD8+ T cell inhibition CFSE assay on HLA-E transfectants loaded with peptide; assay type: cell-based, human
Text: Data obtained in human studies support the concept established in the murine studies.
To test if HLA-E restricted CD8+ T cells also play a similar role in the control of human T1D, the function of CD8+ T cells in freshly isolated PBMC from T1D patients was first tested. For this purpose two assays were employed. The first is a standard T cell proliferation assay measuring self non-self discrimination, comparing the overall immune responses of human PBMC to self versus foreign antigens in the presence or absence of CD8+ T cells. Thus, intact PBMC populations or purified CD4+ T cells were cultured with varying doses of the self-antigen GAD or foreign antigen TT. Comparing PBMC with purified CD4+ T cells could not alone definitively pinpoint the function of the CD8+ T cells contained in the PBMC. […] This is the case in testing the function of CD8+ T cells in T1D patients combined with the CD8+ T cell inhibition CFSE assay, which can be applied as a relative simple and feasible clinical test. […] We then proceeded to further identify the specificity of the CD8+ T cells. Thus, purified CD8+ T cells from T1D patients were tested on HLA-E transfectant H3B2 cells loaded with Hsp60sp. H3B2 loaded with B7sp or non-HLA-E binding peptide served as controls.
CD8+ T cells were in vitro primed with DCs loaded with either Hsp60sp [CD8(H)], or B7sp [CD8(B)] and tested for their specificity and the function of self-nonself discrimination using the two assays described above. […] To verify the restored function of the CD8+ T cells, these CD8+ T cell lines were also tested in a CFSE assay on HLA-E transfectant H3B2 cells loaded with Hsp60sp. A CD8(B) line from each patient served as control. […] This phenomenon has been observed in about 60% of the 10 total T1D patients tested to date.

[5] = system: Qa-1 dependent CD8+ T cells; test: CD8+ T cell inhibition assay, CD8+ T cells from EAE recovered mice; assay type: cell-based; conditions: CD8+ T cells isolated from EAE recovered B10PL mice
Text: It was next tested if Qa-1/Hsp60sp is the target for the regulatory CD8+ T cells. […] The Qa-1 expressing 3F4 cell was used as the Qa-1 peptide presenting cell to test if Hsp60sp is preferentially recognized by the regulatory CD8+ T cells in a CD8+ T cell inhibition assay. The 1-9NacMBP (myelin basic protein) specific, intermediate avidity clone 1AE10, capable of inducing EAE in vivo (8, 19) served as a positive control, and a non-encephalitogenic, low avidity clone 4D10 as well as 3F4 loaded with control non-Qa-1 binding peptide or Qdm served as negative controls. […] Thus, Hsp60sp is, indeed, a specific target recognized by the CD8+ T cells, when presented by Qa-1.
3F4 cells were passively loaded with peptides overnight at 26° C. Equal number of unlabeled 3F4 cells loaded with peptides and CFSE labeled 3F4 cells that are not loaded with peptide were mixed and a graded number of CD8+ T cells were added to the targets. […] The ratio between peptide-loaded (non-CFSE-labeled) 3F4 cells and non-loaded (CFSE labeled) 3F4 cells in the presence of CD8+ T cells was determined as % of specific inhibition: {[the ratio of loaded to unloaded 3F4 cells in control cultures (without CD8+ T cells)−the ratio in experimental cultures (with CD8+ T cells)]/the ratio in control cultures}×100% (1).

CD94/NKG2A [6] = biological target: CD94/NKG2A (Homo sapiens, UniProt P26715+Q13241); conditions: cited from earlier work
CD94/NKG2A (Homo sapiens, UniProt P26715+Q13241), sequence (Q13241 whole entry): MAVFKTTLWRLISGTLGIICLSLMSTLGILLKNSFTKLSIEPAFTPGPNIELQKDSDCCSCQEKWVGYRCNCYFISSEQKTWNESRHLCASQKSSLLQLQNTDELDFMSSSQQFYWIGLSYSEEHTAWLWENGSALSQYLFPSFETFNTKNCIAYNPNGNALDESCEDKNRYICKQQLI
CD94/NKG2A (Homo sapiens, UniProt P26715+Q13241), sequence (P26715 whole entry): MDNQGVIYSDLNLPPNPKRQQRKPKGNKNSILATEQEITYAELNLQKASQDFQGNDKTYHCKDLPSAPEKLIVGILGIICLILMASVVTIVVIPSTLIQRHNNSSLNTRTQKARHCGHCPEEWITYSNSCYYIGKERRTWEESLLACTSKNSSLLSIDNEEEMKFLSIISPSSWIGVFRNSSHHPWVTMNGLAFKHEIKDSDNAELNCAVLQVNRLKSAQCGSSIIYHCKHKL

[7] = system: Qa-1 restricted CD8+ T cells; test: CD8+ T cell inhibition assay, CD8+ T cells from peptide vaccination protected mice; assay type: cell-based
Text: To test this hypothesis, a Qa-1a expressing cell 3F4 was used as peptide-presenting cell to determine the specificity of the CD8+ T cells isolated from either 1-9Nac MBP or p277 vaccination protected B10PL and NOD mice.
Physiological target T cells, the intermediate avidity 1-9Nac MBP specific clone 1AE10 from B10PL mice and p277 specific clone 15A6 from NOD mice served as positive controls, and low avidity MBP specific clone 4D10 and p277 specific clone 1304 served as negative control to assess the function and the specificity of the CD8+ T cells. It is noted that “quantitative” but not “qualitative” differences between the Qa-1/Hsp60sp versus Qa-1/Qdm is a function of avidity of T cell activation which determines their susceptibility to the down-regulation by the CD8+ T.
3F4 cells were passively loaded with peptides overnight at 26° C. Equal number of unlabeled 3F4 cells loaded with peptides and CFSE labeled 3F4 cells that are not loaded with peptide were mixed and a graded number of CD8+ T cells were added to the targets. […] 4 days later, the cell mixtures were stained with anti-mouse CD8-PE mAb to distinguish CD8+ T cells from target cells and the CD8+ T cells were gated out during the analysis when the ratio between two types of targets were calculated. […]

HEL: conventional foreign antigen Hen Egg Lysozyme
Protection from spontaneously developed T1D (T1D in NOD mice): CD8+ T cell dependent protection from either EAE or T1D | Protection from subsequently induced EAE (EAE in B10PL mice): CD8+ T cell dependent protection from either EAE or T1D

AMAPRTLLL [Qdm]
Inhibition of NK killing of peptide-loaded 3F4 cells (CD94/NKG2A [1]): resistant to the NK killing | Binding to Qa-1 (Qa-1/HLA-E): binds with high affinity | Binding to Qa-1 (shift in intensity of Qa-1a surface staining) (Qa-1 [2]): could bind to Qa-1

AcASGLAPSGA (Ac-ASGLAPSGA; listed as Mus musculus) [1-9Nac MBP]
Protection from spontaneously developed T1D (T1D in NOD mice): equally protected NOD mice from spontaneously developed T1D | Protection from subsequently induced EAE (EAE in B10PL mice): equally effectively protected from EAE

QMRPVSRAL (listed as Mus musculus) [Hsp60sp]
Competition with Qdm for binding to Qa-1 (abrogation of Qdm protection from NK killing) (Qa-1 [3]): abrogated the protection of NK killing of 3F4 by Qdm in a dose dependent manner | Inhibition of H3B2 cells loaded with peptide by CD8(H) ([4]; CD8(H) line from a T1D patient, after in vitro priming with DCs loaded with Hsp60sp): specifically inhibited | Inhibition of H3B2 cells loaded with peptide by CD8+ T cells ([4]; CD8+ T cells from freshly isolated PBMC of T1D patients (11 total patients tested)): failed to specifically inhibit | Inhibition of H3B2 cells loaded with peptide by CD8+ T cells ([4]; CD8+ T cells from normal controls): specifically inhibited | Inhibition of HLA-E transfected clones loaded with peptide by CD8(H) ([4]; CD8+ T cells primed in vitro with Hsp60sp loaded dendritic cells): specifically inhibit | Inhibition of NK killing of peptide-loaded 3F4 cells (CD94/NKG2A [1]): does not inhibit NK killing | Competition with B7sp for occupancy of HLA-E (Qa-1/HLA-E; human studies): capable of competing with B7sp peptide | Susceptibility of peptide-loaded 3F4 cells to down-regulation by CD8+ T cells [5]: susceptible to the down-regulation by the CD8+ T cells | Interaction of HLA-E/peptide complex with CD94/NKG2A (CD94/NKG2A [6]): does not interact with CD94/NKG2A | Down-regulation of peptide-sensitized 3F4 cells by CD8+ T cells ([7]; CD8+ T cells from 1-9Nac MBP or p277 vaccination protected B10PL mice): efficiently down-regulated | Down-regulation of peptide-sensitized 3F4 cells by CD8+ T cells ([7]; CD8+ T cells from p277 or 1-9Nac MBP vaccination protected NOD mice): efficiently down-regulated | Binding to Qa-1 (shift in intensity of Qa-1a surface staining) (Qa-1 [2]): could bind to Qa-1

VLGGGVALLRVIPALDSLTPANED [p277]
Protection from spontaneously developed T1D (T1D in NOD mice): completely protected NOD mice from spontaneously developed T1D up to 35 week's of age | Protection from subsequently induced EAE (EAE in B10PL mice): equally effectively protected from EAE
